Source: patent US10738033B2, “Trk inhibition” (NantBio, Inc., priority 2017, dated 2020)

target: T1, TrkA(h) (Homo sapiens, UniProt P04629); test: KinaseProfiler (Millipore) radiometric kinase inhibition assay; assay type: biochemical; details: compound concentration 1 μM
T1 construct: purchased Millipore (KinaseProfiler service)
Protocol: The KinaseProfiler™ Service Assay Protocols (Millipore) were used to test the kinase inhibiting activity of novel compounds from this invention. To do this, the buffer composition was as follows: 20 mM MOPS, 1 mM EDTA, 0.01% Brij-35, 5% Glycerol, 0.1% β-mercaptoethanol, 1 mg/mL BSA. Test compounds were initially dissolved in DMSO at the desired concentration, then serially diluted into the kinase assay buffer. In a final reaction volume of 25 μL, TrkA(h) (5-10 mU) is incubated with 8 mM MOPS pH 7.0, 0.2 mM EDTA, 200 μM LRRASLG (Kemptide), 10 mM MgAcetate and [γ^33P-ATP]. The reaction was initiated by the addition of the MgATP mix. After incubation for 40 minute at room temperature, the reaction was stopped by addition of 5 μL of a 3% phosphoric acid solution. 10 μL of the reaction was then spotted onto a P30 filtermat and washed three times for 5 minutes in 50 mM phosphoric acid and once in methanol prior to drying and scintillation counting. Wells containing substrate but no kinase and wells containing a phosphopeptide control were used to set 0% and 100% phosphorylation value, respectively.

T1 sequence (P04629 33-796): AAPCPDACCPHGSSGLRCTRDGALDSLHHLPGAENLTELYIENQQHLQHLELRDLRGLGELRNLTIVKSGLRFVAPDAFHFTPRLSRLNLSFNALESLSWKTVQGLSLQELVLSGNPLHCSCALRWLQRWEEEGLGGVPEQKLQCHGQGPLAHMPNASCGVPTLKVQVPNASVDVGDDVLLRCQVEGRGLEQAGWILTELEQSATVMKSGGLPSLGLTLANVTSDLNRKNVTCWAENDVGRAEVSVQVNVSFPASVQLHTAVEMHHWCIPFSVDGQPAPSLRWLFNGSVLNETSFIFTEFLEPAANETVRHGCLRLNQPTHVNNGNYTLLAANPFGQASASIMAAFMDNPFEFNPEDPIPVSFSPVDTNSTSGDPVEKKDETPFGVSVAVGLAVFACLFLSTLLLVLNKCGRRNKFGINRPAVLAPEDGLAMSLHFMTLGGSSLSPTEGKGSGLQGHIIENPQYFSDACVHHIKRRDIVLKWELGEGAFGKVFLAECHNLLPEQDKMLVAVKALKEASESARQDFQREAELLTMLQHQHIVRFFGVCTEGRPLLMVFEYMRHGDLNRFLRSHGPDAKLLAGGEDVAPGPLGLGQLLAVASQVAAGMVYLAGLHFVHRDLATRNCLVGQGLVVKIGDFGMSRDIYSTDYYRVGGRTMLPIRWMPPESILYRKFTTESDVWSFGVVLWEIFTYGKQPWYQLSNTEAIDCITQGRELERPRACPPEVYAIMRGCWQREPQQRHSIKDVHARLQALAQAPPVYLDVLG

| Structure (SMILES) | inhibition at 1 µM |
| --- | --- |
| Fc1ccc(F)c(C2CCCN2c2cc(Nc3cc(C4CC4)[nH]n3)ncn2)c1 (stereo not drawn) [Example 44] | 103% |
| Fc1ccc(C2CCN2c2cc(Nc3cc(C4CC4)[nH]n3)ncn2)cc1 (stereo not drawn) [Example 62] | 105% |
| CN(C)c1cccc(C2CCCN2c2cc(Nc3cc(C4CC4)[nH]n3)ncn2)c1 (stereo not drawn) [Example 41] | 101% |
| Fc1ccc(Nc2cc(N3CCCC3c3ccc(F)cc3)ncn2)cc1 (stereo not drawn) [Example 57] | 44% |
| Fc1ccc(C2CCCN2c2cc(Nc3n[nH]c4ccccc34)ncn2)cc1 (stereo not drawn) [Example 60] | 79% |
| N#Cc1cnc(Nc2cc(N3CCCC3c3ccc(F)cc3)ncn2)s1 (stereo not drawn) [Example 58] | 7% |
| Fc1ccc(C2CCCN2c2cc(Nc3cc(-c4ccco4)[nH]n3)ncn2)cc1 (stereo not drawn) [Example 51] | 79% |
| Fc1ccc(C2CCCN2c2ncnc(Nc3cc(C4CC4)[nH]n3)n2)cc1 (stereo not drawn) [Example 73] | 100% |
| FC(F)(F)c1cccc(C2CCCN2c2cc(Nc3cc(C4CC4)[nH]n3)ncn2)c1 (stereo not drawn) [Example 31] | 61% |
| Clc1ccc(C2CCCN2c2cc(Nc3cc(C4CC4)[nH]n3)ncn2)cc1Cl (stereo not drawn) [Example 46] | 100% |
| CC(C)(C)OC(=O)N1CCC(c2cc(Nc3cc(N4CCCC4c4ccccc4Cl)ncn3)n[nH]2)CC1 (stereo not drawn) [Example 55] | 6% |
| Clc1ccc(C2CCCN2c2ncnc(Nc3cc(C4CC4)[nH]n3)n2)cc1 (stereo not drawn) [Example 75] | 100% |
| Clc1ccccc1C1CCCN1c1cc(Nc2cc(C3CCCO3)[nH]n2)ncn1 (stereo not drawn) [Example 54] | 70% |
| Fc1ccc(C2CCCN2c2ncnc(Nc3cc(C4CC4)[nH]n3)n2)c(F)c1 (stereo not drawn) [Example 74] | 100% |
| Fc1ccc(C2CCCN2c2ncnc(Nc3cc(C4CC4)[nH]n3)c2F)cc1 (stereo not drawn) [Example 48] | 51% |
| Clc1ccccc1C1CCCN1c1cc(Nc2cc(-c3ccco3)[nH]n2)ncn1 (stereo not drawn) [Example 56] | 47% |
| Cc1ccc(C2CCCN2c2ncnc(Nc3cc(C4CC4)[nH]n3)c2C#N)cc1 (stereo not drawn) [Example 47] | -6% |

| Structure (SMILES) | inhibition at 1 µM |
| --- | --- |
| CCCc1cc(Nc2cc(N3CCCC3c3ccc(Cl)cc3)ncn2)n[nH]1 (stereo not drawn) [Example 67] | 99% |
| FC(F)(F)c1ccc(C2CCCN2c2cc(Nc3cc(C4CC4)[nH]n3)ncn2)cc1 (stereo not drawn) [Example 26] | 98% |
| C/C=C/c1cc(Nc2cc(N3CCCC3c3ccc(F)cc3)ncn2)n[nH]1 (stereo not drawn) [Example 50] | 99% |
| OC1CC(c2cc(F)ccc2F)N(c2cc(Nc3cc(C4CC4)[nH]n3)ncn2)C1 (stereo not drawn) [Example 45] | 96% |
| Fc1cccc(F)c1C1CCCN1c1cc(Nc2cc(C3CC3)[nH]n2)ncn1 (stereo not drawn) [Example 42] | 101% |
| Fc1ccc(C2CCCN2c2cc(Nc3cc(C4CCC4)[nH]n3)ncn2)cc1 (stereo not drawn) [Example 49] | 101% |
| CC(C)n1cc(Nc2cc(N3CCCC3c3ccc(F)cc3)ncn2)cn1 (stereo not drawn) [Example 59] | 0% |
| CN(C)c1ccc(C2CCCN2c2cc(Nc3cc(C4CC4)[nH]n3)ncn2)cc1 (stereo not drawn) [Example 40] | 102% |
| CN1CCN(c2ccc(Nc3cc(N4CCCC4c4ccc(F)cc4)ncn3)nc2)CC1 (stereo not drawn) [Example 61] | -12% |
| Nc1nc(Nc2cc(C3CC3)[nH]n2)cc(N2CCCC2c2ccc(F)cc2)n1 (stereo not drawn) [Example 71] | 100% |
| CC(C)Oc1cc(Nc2cc(N3CCCC3c3ccccc3Cl)ncn2)n[nH]1 (stereo not drawn) [Example 53] | 96% |
| Fc1ccc(C2CCCN2c2cc(Nc3cc(-c4ccccn4)[nH]n3)ncn2)cc1 (stereo not drawn) [Example 52] | 30% |
| COc1ccc(C2CCCN2c2cc(Nc3cc(C4CC4)[nH]n3)ncn2)cc1 (stereo not drawn) [Example 27] | 101% |
| Fc1ccc(C2CCCN2c2cc(Nc3cc(C4CC4)[nH]n3)ncn2)c(F)c1 (stereo not drawn) [Example 43] | 105% |
| Cc1cc(Nc2cc(N3CCCC3c3ccc(Cl)cc3)ncn2)n[nH]1 (stereo not drawn) [Example 66] | 95% |
| FC(F)(F)c1ccccc1C1CCCN1c1cc(Nc2cc(C3CC3)[nH]n2)ncn1 (stereo not drawn) [Example 36] | 93% |

Second part, the compound after the results:

| inhibition at 1 µM | Structure (SMILES) |
| --- | --- |
| 100% | Cc1ccc(C2CCCN2c2cc(Nc3cc(C4CC4)[nH]n3)ncn2)cc1 (stereo not drawn) [Example 25] |
| 79% | CN1CCN(c2cc(Nc3cc(C4CC4)[nH]n3)ncn2)C(c2ccccc2)C1 (stereo not drawn) [Example 65] |
| 101% | c1ccc(C2CCCN2c2cc(Nc3cc(C4CC4)[nH]n3)ncn2)cc1 (stereo not drawn) [Example 24] |
| 97% | Clc1ccccc1C1CCCN1c1cc(Nc2cc(C3CC3)[nH]n2)ncn1 (stereo not drawn) [Example 39] |
| 103% | Fc1ccc(C2CCCN2c2cc(Nc3cc(C4CC4)[nH]n3)ncn2)cc1 (stereo not drawn) [Example 28] |
| 101% | Clc1cccc(C2CCCN2c2cc(Nc3cc(C4CC4)[nH]n3)ncn2)c1 (stereo not drawn) [Example 34] |
| 91% | COc1cccc(C2CCCN2c2cc(Nc3cc(C4CC4)[nH]n3)ncn2)c1 (stereo not drawn) [Example 32] |
| 97% | Cc1cccc(C2CCCN2c2cc(Nc3cc(C4CC4)[nH]n3)ncn2)c1 (stereo not drawn) [Example 30] |
| 103% | Fc1cccc(C2CCCN2c2cc(Nc3cc(C4CC4)[nH]n3)ncn2)c1 (stereo not drawn) [Example 33] |
| 105% | Clc1ccc(C2CCCN2c2cc(Nc3cc(C4CC4)[nH]n3)ncn2)cc1 (stereo not drawn) [Example 29] |
| 95% | Fc1ccccc1C1CCCN1c1cc(Nc2cc(C3CC3)[nH]n2)ncn1 (stereo not drawn) [Example 38] |
| 99% | c1ccc(C2CCCCN2c2cc(Nc3cc(C4CC4)[nH]n3)ncn2)cc1 (stereo not drawn) [Example 63] |
| 101% | COc1ccccc1C1CCCN1c1cc(Nc2cc(C3CC3)[nH]n2)ncn1 (stereo not drawn) [Example 37] |
| 92% | Cc1ccccc1C1CCCN1c1cc(Nc2cc(C3CC3)[nH]n2)ncn1 (stereo not drawn) [Example 35] |
| 85% | c1ccc(C2COCCN2c2cc(Nc3cc(C4CC4)[nH]n3)ncn2)cc1 (stereo not drawn) [Example 64] |
